Results taken from patent US20230382925A1, “MODULATORS OF CYSTIC FIBROSIS TRANSMEMBRANE CONDUCTANCE REGULATOR” (VERTEX PHARMACEUTICALS INCORPORATED, priority 2020, published 2023).
Where two headings read alike, the source gives them in different places.

Target: CFTR (Homo sapiens, UniProt P13569)
Test: Membrane Potential Dye, Enteroid Assay B
Assay type: cell-based
Summary of the method: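 Activity given as % of a triple-combination reference (1 μM and 3 μM correctors, 300 nM acute potentiator). Enteroids were preincubated 18-24 h with compound; chloride efflux then measured 15 min by methyl oxonol fluorescence after forskolin/IBMX/Compound III stimulation in chloride-free buffer containing CaCCinh-A01 and Chicago Sky Blue.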

[1] = Table 10, read-out: Ent. B EC50

CFTR, sequence (P13569 with tags, fused parts or gaps DEL508-508): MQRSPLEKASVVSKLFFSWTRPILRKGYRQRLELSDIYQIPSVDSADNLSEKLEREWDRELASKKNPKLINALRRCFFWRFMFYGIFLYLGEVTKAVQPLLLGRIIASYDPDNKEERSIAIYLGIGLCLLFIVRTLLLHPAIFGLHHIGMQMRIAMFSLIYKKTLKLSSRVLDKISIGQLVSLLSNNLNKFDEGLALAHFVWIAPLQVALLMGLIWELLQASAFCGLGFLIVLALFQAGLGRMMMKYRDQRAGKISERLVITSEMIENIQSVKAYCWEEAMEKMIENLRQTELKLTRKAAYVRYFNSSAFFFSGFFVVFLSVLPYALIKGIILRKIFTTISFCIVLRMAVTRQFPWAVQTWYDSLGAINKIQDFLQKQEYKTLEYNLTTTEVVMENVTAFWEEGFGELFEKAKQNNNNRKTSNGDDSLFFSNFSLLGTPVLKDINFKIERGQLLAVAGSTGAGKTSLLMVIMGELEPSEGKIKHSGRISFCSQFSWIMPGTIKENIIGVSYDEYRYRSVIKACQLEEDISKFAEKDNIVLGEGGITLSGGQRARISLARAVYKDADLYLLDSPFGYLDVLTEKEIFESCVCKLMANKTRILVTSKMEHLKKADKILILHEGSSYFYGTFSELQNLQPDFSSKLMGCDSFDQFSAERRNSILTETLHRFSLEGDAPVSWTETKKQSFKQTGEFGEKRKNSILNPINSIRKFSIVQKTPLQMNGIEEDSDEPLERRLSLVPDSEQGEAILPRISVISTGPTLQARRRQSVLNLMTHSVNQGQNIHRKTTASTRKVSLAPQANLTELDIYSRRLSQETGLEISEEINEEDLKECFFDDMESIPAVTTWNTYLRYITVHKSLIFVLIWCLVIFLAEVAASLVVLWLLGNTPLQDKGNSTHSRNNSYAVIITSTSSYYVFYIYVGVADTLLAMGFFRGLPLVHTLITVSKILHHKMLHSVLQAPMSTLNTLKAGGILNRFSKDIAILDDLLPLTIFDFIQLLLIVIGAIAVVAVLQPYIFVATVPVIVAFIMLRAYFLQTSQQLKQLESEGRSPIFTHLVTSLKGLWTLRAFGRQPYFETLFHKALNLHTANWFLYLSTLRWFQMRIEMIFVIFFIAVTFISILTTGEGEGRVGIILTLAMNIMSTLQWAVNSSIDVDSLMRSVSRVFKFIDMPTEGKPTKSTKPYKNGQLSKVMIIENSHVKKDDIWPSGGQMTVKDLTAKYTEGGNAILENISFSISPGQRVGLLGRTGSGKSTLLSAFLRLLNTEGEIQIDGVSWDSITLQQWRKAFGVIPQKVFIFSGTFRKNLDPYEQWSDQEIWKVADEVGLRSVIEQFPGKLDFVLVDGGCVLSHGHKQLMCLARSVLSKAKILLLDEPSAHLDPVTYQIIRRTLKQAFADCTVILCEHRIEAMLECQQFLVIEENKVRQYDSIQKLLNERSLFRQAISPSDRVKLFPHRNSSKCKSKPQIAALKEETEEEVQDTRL

Structure (SMILES)	Ent. B Max Activity (%) (Table 9)	EC50 (Table 9, read-out: Ent. B EC50) [nM]	Ent. B Max Activity (%) (Table 10)	EC50 [1] [nM]	other results
Cc1cccc(C)c1-c1cc2nc(n1)NS(=O)(=O)c1cccc(c1)C(=O)N(C1CC3(C1)CN(C(C)C)C3)[C@H](CC1(C(F)(F)F)CC1)CO2 [Compound 132, (11R)-6-(2,6-Dimethylphenyl)-12-(2-isopropyl-2-azaspiro[3.3]heptan-6-yl)-2,2-dioxo-11-[[1-(trifluoromethyl)cyclopropyl]methyl]-9-oxa-2λ^6-thia-3,5,12,19-tetrazatricyclo[12.3.1.14,8]nonadeca-1(18),4(19),5,7,14,16-hexaen-13-one]	+++ (+++ is >60%)	< 1000			
Cc1cccc(C)c1-c1cc2nc(n1)NS(=O)(=O)c1cccc(c1)C(=O)N(C1CC(NC3CCC3)C1)[C@H](CC(C)C)CO2 (stereo partly shown) [Compound 375]	+++ (+++ is >60%)	< 1000			
Cc1cccc(C)c1-c1cc2nc(n1)NS(=O)(=O)c1cccc(c1)C(=O)N(C1CC3(C1)CC(C)(O)C3)[C@H](CC(C)(C)C)CO2 (single isomer, unassigned) [Compound 119]			+++ (+++ is >60%)	< 1000	
Cc1cccc(C)c1-c1cc2nc(n1)NS(=O)(=O)c1cccc(c1)C(=O)N(c1cnn(C3CCN(Cc4ccccc4)CC3)c1)[C@H](CC(C)(C)C)CO2 [Compound 226]			+ (+ is <300%)	< 1000	
Cc1cccc(C)c1-c1cc2nc(n1)NS(=O)(=O)c1cccc(c1)C(=O)N([C@H]1C[C@@H](NC(=O)OC(C)C)C1)[C@H](CC(C)C)CO2 (single isomer, unassigned) [Compound 64]					Ent. B Max Activity (%): +++ (+++ is >60%); EC50 (read-out: Ent. B EC50): < 1000 nM
Cc1cccc(C)c1-c1cc2nc(n1)NS(=O)(=O)c1cccc(c1)C(=O)N(C1CC3(CC(N)C3)C1)[C@H](CC(C)(C)C)CO2 (stereo partly shown) [Compound 463]	+++ (+++ is >60%)	< 1000			
CC(=O)N1CCC2(CC1)CC(N1C(=O)c3cccc(c3)S(=O)(=O)Nc3nc(cc(-c4c(C)cccc4C)n3)OC[C@H]1CC(C)(C)C(F)(F)F)C2 [Compound 420]	+++ (+++ is >60%)	< 1000			
Cc1cccc(C)c1-c1cc2nc(n1)NS(=O)(=O)c1cccc(c1)C(=O)N([C@H]1C[C@@H](C(C)(C)O)C1)[C@H](CC(C)(C)C)CO2 (single isomer, unassigned) [Compound 142]			+++ (+++ is >60%)	< 1000	
[H][C@]1(N2C(=O)c3cccc(c3)S(=O)(=O)Nc3nc(cc(-c4c(C)cccc4C)n3)OC[C@H]2CCC(C)C)C[C@@]2(C[C@H](C(C)(C)O)C2)C1 (single isomer, unassigned) [Compound 4]			+++ (+++ is >60%)	< 1000	
COC(=O)N1C[C@H]2C[C@@H](C1)C2N1C(=O)c2cccc(c2)S(=O)(=O)Nc2nc(cc(-c3c(C)cccc3C)n2)OC[C@H]1CC(C)(C)C (single isomer, unassigned) [Compound 143]			++ (++ is 30-60%)		EC50 (read-out: Ent. B EC50, Table 10): < 1000 nM
COC(=O)N[C@H]1C[C@@H](N2C(=O)c3cccc(c3)S(=O)(=O)Nc3nc(cc(-c4c(C)cccc4C)n3)OC[C@H]2CC(C)(C)C)C1 (single isomer, unassigned) [Compound 168]	+++ (+++ is >60%)	< 1000			
Cc1cccc(C)c1-c1cc2nc(n1)NS(=O)(=O)c1cccc(c1)C(=O)N([C@H]1C[C@@H](N3CCOC3=O)C1)[C@H](CC(C)(C)C)CO2 (stereo in doubt) [Compound 251]			+++ (+++ is >60%)	< 1000	
Cc1cccc(C)c1-c1cc2nc(n1)NS(=O)(=O)c1cccc(c1)C(=O)N([C@H]1C[C@@H](CNC(=O)OC(C)C)C1)[C@H](CC(C)C)CO2 (single isomer, unassigned) [Compound 107]	+++ (+++ is >60%)	< 1000			
Cc1cccc(C)c1-c1cc2nc(n1)NS(=O)(=O)c1cccc(c1)C(=O)N([C@H]1C[C@](C)(NC(=O)OC(C)C)C1)[C@H](CC(C)(C)C)CO2 (stereo in doubt) [Compound 245]			+++ (+++ is >60%)	< 1000	
Cc1cccc(C)c1-c1cc2nc(n1)NS(=O)(=O)c1cccc(c1)C(=O)N([C@H]1C[C@@H](N3CCOCC3)C1)[C@H](CC(C)C)CO2 [Compound 387]	+++ (+++ is >60%)	< 1000			
Cc1cccc(C)c1-c1cc2nc(n1)NS(=O)(=O)c1cccc(c1)C(=O)N([C@@H]1CC[C@@H]1C1CC1)[C@H](CC(C)(C)C)CO2 (single isomer, unassigned) [Compound 148]			+++ (+++ is >60%)	< 1000	
Cc1cccc(C)c1-c1cc2nc(n1)NS(=O)(=O)c1cccc(c1)C(=O)N(C1CC3(CCN(CCOC(C)C)CC3)C1)[C@H](CC(C)C)CO2 [Compound 300]					EC50 (read-out: Ent. B EC50): < 1000 nM
Cc1cccc(C)c1-c1cc2nc(n1)NS(=O)(=O)c1cccc(c1)C(=O)N(C1CC3(CC(NC(=O)OC(C)C)C3)C1)[C@H](CC(C)(C)C)CO2 (stereo partly drawn) [Compound 92, Isopropyl ((2S,4s,6S)-6-((R)-1^6-(2,6-dimethylphenyl)-7-neopentyl-3,3-dioxido-5-oxo-9-oxa-3-thia-2,6-diaza-1(2,4)-pyrimidina-4(1,3)-benzenacyclononaphane-6-yl)spiro[3.3]heptan-2-yl)carbamate]	+++ (+++ is >60%)	< 1000			

Structure (SMILES)	Ent. B Max Activity (%) (Table 9)	EC50 (Table 9, read-out: Ent. B EC50) [nM]	Ent. B Max Activity (%) (Table 10)	EC50 [1] [nM]	other results
Cc1cccc(C)c1-c1cc2nc(n1)NS(=O)(=O)c1cccc(c1)C(=O)N(C1CC3(CCN(C(=O)COC(C)(C)C)CC3)C1)[C@H](CC(C)C)CO2 [Compound 460]	+++ (+++ is >60%)	< 1000			
Cc1cccc(C)c1-c1cc2nc(n1)NS(=O)(=O)c1cccc(c1)C(=O)N(C1CC3(CCN(C4CCOCC4)CC3)C1)[C@H](CC(C)C)CO2 [Compound 275]	+++ (+++ is >60%)	< 1000			
COC(=O)N(C)C1CC(N2C(=O)c3cccc(c3)S(=O)(=O)Nc3nc(cc(-c4c(C)cccc4C)n3)OC[C@H]2CC(C)(C)C)C1 (single isomer, unassigned) [Compound 170]			++ (++ is 30-60%)		
Cc1cccc(C)c1-c1cc2nc(n1)NS(=O)(=O)c1cccc(c1)C(=O)N(C1CC3(C1)CC(CO)(CO)C3)[C@H](CC(C)(C)C)CO2 [Compound 354]			+++ (+++ is >60%)	< 1000	
Cc1cccc(C)c1-c1cc2nc(n1)NS(=O)(=O)c1cccc(c1)C(=O)N(C1CC3(CCN(C(=O)OC(C)C)CC3)C1)[C@H](CC1(C(F)(F)F)CC1)CO2 [Compound 464]					Ent. B Max Activity (%): +++ (+++ is >60%); EC50 (read-out: Ent. B EC50): < 1000 nM
CCC(=O)NC1(C)CC(N2C(=O)c3cccc(c3)S(=O)(=O)Nc3nc(cc(-c4c(C)cccc4C)n3)OCC2CC(C)(C)C)C1 (stereo not shown) [Compound 243]			+++ (+++ is >60%)	< 1000	
CCCN1CCC2(CC1)CC(N1C(=O)c3cccc(c3)S(=O)(=O)Nc3nc(cc(-c4c(C)cccc4C)n3)OC[C@H]1CC(C)C)C2 [Compound 303]					Ent. B Max Activity (%): +++ (+++ is >60%); EC50 (read-out: Ent. B EC50): < 1000 nM
Cc1cccc(C)c1-c1cc2nc(n1)NS(=O)(=O)c1cccc(c1)C(=O)N(C1CCN(C(=O)OC(C)C)C1)[C@H](CC(C)C)CO2 (single isomer, unassigned) [Compound 39]					Ent. B Max Activity (%): +++ (+++ is >60%); EC50 (read-out: Ent. B EC50): < 1000 nM
Cc1cccc(C)c1-c1cc2nc(n1)NS(=O)(=O)c1cccc(c1)C(=O)N(C1CC3(C1)CC(C)(O)C3)[C@H](CC(C)(C)C)CO2 (single isomer, unassigned) [Compound 120]			++ (++ is 30-60%)	< 1000	
COCCN1CCN([C@H]2C[C@@H](N3C(=O)c4cccc(c4)S(=O)(=O)Nc4nc(cc(-c5c(C)cccc5C)n4)OC[C@H]3CC(C)C)C2)CC1=O [Compound 385]	+++ (+++ is >60%)	< 1000			
Cc1cccc(C)c1-c1cc2nc(n1)NS(=O)(=O)c1cccc(c1)C(=O)N(C1CC(N[C@H]3CC[C@H](O)CC3)C1)[C@H](CC(C)C)CO2 (stereo in doubt) [Compound 372]	+++ (+++ is >60%)	< 1000			
Cc1cccc(C)c1-c1cc2nc(n1)NS(=O)(=O)c1cccc(c1)C(=O)N(C1CC3(CCN(CCOC(F)(F)F)CC3)C1)[C@H](CC(C)C)CO2 [Compound 299]					Ent. B Max Activity (%): +++ (+++ is >60%); EC50 (read-out: Ent. B EC50): < 1000 nM
Cc1cccc(C)c1-c1cc2nc(n1)NS(=O)(=O)c1cccc(c1)C(=O)N([C@H]1C[C@@H](CNC(=O)OC(C)C)C1)[C@H](CC(C)C)CO2 (single isomer, unassigned) [Compound 108]	+++ (+++ is >60%)	< 1000			
CCN1CCC2(CC1)CC(N1C(=O)c3cccc(c3)S(=O)(=O)Nc3nc(cc(-c4c(C)cccc4C)n3)OC[C@H]1CC(C)C)C2 [Compound 258]	+++ (+++ is >60%)	< 1000			
CC(=O)NC1CC(N2C(=O)c3cccc(c3)S(=O)(=O)Nc3nc(cc(-c4c(C)cccc4C)n3)OC[C@H]2CC(C)(C)C)C1 (single isomer, unassigned) [Compound 448]	+++ (+++ is >60%)	< 1000			
COC(=O)NC1(C)CC2(CC(N3C(=O)c4cccc(c4)S(=O)(=O)Nc4nc(cc(-c5c(C)cccc5C)n4)OC[C@H]3CC(C)(C)C)C2)C1 (single isomer, unassigned) [Compound 95]			+++ (+++ is >60%)	< 1000	
Cc1cccc(C)c1-c1cc2nc(n1)NS(=O)(=O)c1cccc(c1)C(=O)N([C@H]1C[C@@H](OC(F)(F)F)C1)[C@H](CC1(C(F)(F)F)CC1)CO2 (stereo in doubt) [Compound 212]			++ (++ is 30-60%)	< 1000	
[H][C@]1(N2C(=O)c3cccc(c3)S(=O)(=O)Nc3nc(cc(-c4c(C)cccc4C)n3)OC[C@H]2CC2(C(F)(F)F)CC2)C[C@]2(C[C@@H](CO)C2)C1 (single isomer, unassigned) [Compound 135]					Ent. B Max Activity (%): +++ (+++ is >60%); EC50 (read-out: Ent. B EC50): < 1000 nM
